Measurements taken from patent US6689803B2, “Compositions and methods for treating surgical adhesions” (Angiotech Pharmaceuticals, Inc., priority 1996, dated 2004).
pIC50: −log10 of the molar value. Like-named read-outs stand apart in the source and are kept apart here.

Legend:
[1] = system: restenosis / intimal hyperplasia; experiment: Rat carotid artery balloon injury model of restenosis, perivascular treatment; format: in vivo; conditions: 10% camptothecin-loaded EVA film, 14 days, two animals
Description: WISTAR rats weighing 250 to 300 g were anesthetized by the intramuscular injection of Innovar (0.33 ml/kg). Once sedated they were then placed under Halothane anesthesia After general anesthesia was established, fur over the neck region was shaved, the skin clamped and swabbed with betadine. A vertical incision was made over the left carotid artery and the external carotid artery exposed. Two ligatures were placed around the external carotid artery and a transverse arteriotomy was made. […] The endothelium was denuded by passing the inflated balloon up and down the carotid artery three times. The catheter was then removed and the ligature tied off on the left external carotid artery. […] The wound was then closed.

LNCaP cells = experiment: LNCaP cell growth (crystal violet); format: cell-based, human; conditions: inferred from toxicity at 0.001 nM
Description: LNCaP cells were seeded at concentrations of 2×10^3 and 1×10^3 cells/well respectively in 96 well plates. […] After incubation, the cells were fixed with 1% glutaraldehyde solution, and stained for 5 minutes with 0.5% crystal violet. The dye was successively eluted with 100 μl of buffer solution and the absorbance was read on a Titertek Multiskan microplate reader using a wavelength of 492 nm Absorbance. Cell growth was expressed as a percentage relative to control wells in the absence of the compound (set at 100%).

[2] = system: chick chorioallantoic membrane (CAM) vasculature; conditions: PCL paste (3 mg)
aggrecan mRNA = experiment: Expression of proteoglycan (aggrecan) in chondrocytes; format: cell-based, calf; conditions: all concentrations evaluated (10^−7 M to 10^−4 M)
Description: Primary chondrocyte cultures were freshly isolated from calf cartilage. The cells were plated at 2.5×10^6 per ml in 100×20 mm culture dishes and incubated in Ham's F12 medium containing 5% FBS overnight at 37° C. The cells were starved in serum-free medium overnight and then treated with anti-microtubule agents at various concentrations (10^−7 M, 10^−6 M, 10^−5 M and 10^−4 M) for 6 hours. […] Total RNA was isolated by the acidified guanidine isothiocyanate method and subjected to electrophoresis on a denatured gel. […] The exposed films were scanned and quantitatively analyzed with ImageQuant.

collagenase (MMP-1) mRNA = experiment: IL-1 induced collagenase mRNA expression in chondrocytes (Northern blot); format: cell-based, calf; conditions: pre-incubation 6 hours, IL-1 20 ng/ml 18 hours
Description: Total RNA was isolated, and the MMP-1 mRNA levels were determined by Northern blot analysis. The blots were subsequently stripped and reprobed with ^32P-radiolabeled rat GAPDH cDNA, which was used as a housekeeping gene. The results shown are representative of four independent experiments. Quantitation of collagenase-1 and stromelysin-expression mRNA levels. The MMP-1 and MMP-3 expression levels were normalized with GAPDH.
Primary chondrocyte cultures were freshly isolated from calf cartilage. The cells were plated at 2.5×10^6 per ml in 100×20 mm culture dishes and incubated in Ham's F12 medium containing 5% FBS overnight at 37° C. […] IL-1 (20 ng/ml) was then added to each plate and the plates incubated for an additional 18 hours. Total RNA was isolated by the acidified guanidine isothiocyanate method and subjected to electrophoresis on a denatured gel. Denatured RNA samples (15 μg) were analyzed by gel electrophoresis in a 1% denatured gel, transferred to a nylon membrane and hydridized with the ^32P-labeled collagenase cDNA probe. ^32P-labeled glyceraldehyde phosphate […] (GAPDH) cDNA as an internal standard to ensure roughly equal loading. The exposed films were scanned and quantitatively analyzed with ImageQuant.

NF-κB = NF-κB activity (cell-based) reporter assay in NIH-3T3; set-up: species or system murine; conditions: 6-hour and 24-hour treatments
Description: IL-1 and TNF were both identified as being proinflammatory cytokines that activate the transcription of genes driven by a transcription factor named NF-κB also involved in inflammatory processes. The inflammatory effect of IL-1 and TNF can therefore be indirectly assessed by means of a reporter gene assay (NF-κB) responding to IL-1 and TNF stimulation.
On day one, 5×10^4 NIH-3T3 (murine fibroblast), stably transfected with a NF-κB reporter construct (Luciferase, Promega Corp.), were plated per well (24-well plate). Once confluent (on day 3-4), cells were starved by replacing the complete medium with 1 ml of serum-free medium. Following a 24-hour starvation, cells were treated with various concentrations of anti-microtubule agents 6 hours prior to the addition of IL-1 (20 ng/ml) and TNF (20 ng/ml). Cells were exposed to IL-1 and TNF for 1 hour and 16 hours and NF-κB activity measured 24 hours later. On day five, the medium was discarded and the cells were rinsed once with PBS. Cells were then extracted for 15 minutes with 250 μl of lysis buffer (Promega Corp., Wisconsin). NF-κB transcriptional activity was assessed by adding 25 μl of luciferase substrate to a tube containing 2.5 μl of cell extract. The tube was immediately inserted in a luminometer (Turner Designs) and light emission measured for 10 seconds. The luciferase data were then normalized for protein concentration.

synoviocytes = experiment: Proliferation assay (MTT); format: cell-based; conditions: 24-hour exposure
Description: On day one, 5-10×10^4 synoviocytes were plated per well (96-well plate). Column #1 was kept free of cells (blank). On day 2, the plate was flicked to discard the medium and 200 μl of medium containing various concentrations of drug was added. […] There was no drug added to columns #1 and #2 (blank and untreated control, respectively). The medium containing the drug was discarded and 200 μl of fresh complete medium was added. The cells were then left to grow for an additional 3 to 4 days. On day five, 20 μl of dimethylthiazol diphenyltetrazolium bromide salt (MTT) (5 mg/ml PBS) was added and allowed to incubate for 4 hours at 37° C. The medium was decanted and 200 μl of DMSO was added.
The data were expressed as the % of survival which was obtained by dividing the number of cells remaining after treatment by the number of cells in the untreated control column #2 (the number of cells was obtained from a standard done prior to the assay).

| SMILES | intimal hyperplasia [1] | EC50 (LNCaP cells) | Inhibition/n ([2]; 0.25%) | Inhibition/n ([2]; 1%) | Inhibition/n ([2]; 5%) | expression of aggrecan (aggrecan mRNA) | prevented IL-1-induced collagenase expression at concentrations as low as (collagenase (MMP-1) mRNA) | inhibitory effect on IL-1- and TNF-induced NF-κB activity (NF-κB) | pIC50 (synoviocytes) |
| --- | --- | --- | --- | --- | --- | --- | --- | --- | --- |
| CC[C@@]1(O)C(=O)OCc2c1cc1n(c2=O)Cc2cc3ccccc3nc2-1 [camptothecin] | completely inhibited intimal hyperplasia | femtomolar concentration range | ¾ | ⅔ | ⅘ |  |  |  |  |
| Nc1ncnc2c1ccn2[C@@H]1O[C@H](CO)[C@@H](O)[C@H]1O [tubercidin, 7-deazaadenosine] |  |  |  | ⅓ | ⅔ | did not affect the expression of aggrecan | 100 nM | around 10 μM | ~7.35 |
